Measured values from patent US11723947B2, “Anti-senescence compounds and uses thereof” (Erasmus University Medical Center Rotterdam, priority 2015, dated 2023).
Square brackets hold non-standard residues; d marks the D form. Ends that are not written are not given here.

Assays:
[1] = system: LOX-IMVI; assay: Viability of LOX-IMVI metastatic melanoma cells; type: cell-based, human
Protocol: Assay as in FIG. 2C with increasing doses of Vemurafenib. […] LOX-IMVI however is resistant. […] Experiment as in FIG. 2C, but with LOX-IMVI treated with FOXO4 DRI alone, the BRAF^V600E-inhitors Vemurafenib or Dabrafenib, or the MEK inhibitor Trametinib alone, or a combination hereof. […] LOX-IMVI cells were incubated with FOXO4 DRI or Vemurafenib alone or in combination. The cells were co-treated with the pan-caspase inhibitor QVD-OPH to block caspase-dependent cell death. After 3 days the media was refreshed with new QVD-OPH containing media, but in the absence of FOXO4 DRI or Vemurafenib. At day 5 after initial treatment the cells were fixed and stained for Cytochrome C. Cytochrome C is present in the mitochondria in viable cells and is released into the cytosol when apoptosis is activated. Plotted are the number of cells showing release of Cytochrome C. […] LOX-IMVI were assessed for viability in the presence of FOXO4 DRI, the oxidative stress inhibitor N-Acetyl Cysteine (NAC) or the oxidative stressor H2O2. […]
LOX-IMVI cells were plated for (i) cell viability assay as in example 1 by AqueousOne MTT assay, (ii) apoptosis by Cytochrome C release, (iii) longitudinal cell density assay, and incubated with the FOXO4 DRI peptide, Vemurafenib/Trametinib, or their combination, respectively. […] The % of cells with Cytochrome C release was scored.

[2] = system: senescent and non-senescent IMR90 fibroblasts; assay: Real-time cell density, xCELLigence, senescent and non-senescent IMR90 fibroblasts; type: cell-based, human; conditions: 2 μM on three consecutive days (24, 48 and 72 h)
Protocol: Measurements continued for the indicated time-points. […] Experiment as in FIG. 2K.
Cell density after time of plating was followed. […] NQDI is apparently rather safe even at high doses as as non-senescent cells are not affected by 20 uM NQDI.

[3] = system: Senescent and control IMR90
Protocol: The selectivity index (S.I.) for the EC50 values was determined after […] (GraphPad Prism) of the curves. […] Real-time cell density was measured using an xCELLigence detection system (ACEA Biosciences). Prior to the start of the measurement 50 μL DMEM 10% FCS was added to each well of an E-plate view 16 (Roche) to determine background signal. Non-senescent (2000 cells per well) and senescent (5000 cells/well) IMR90 fibroblasts were then plated in 150 μl medium. 16 hours later the E-plate was placed in the xCELLigence reader and the cell density was recorded every 30 minutes. […] Measurements continued for the indicated time-points. […] Experiment as in FIG. 2C, but with the indicated peptides. […] Cells were plated in 4-well Poly-L-Lysine coated glass bottom 35 mm dishes (D141410; Matsumi, Japan) and incubated with NucView488 Caspase-3 (4440; Essen Bioscience). […] 8h after addition the real-time imaging was initiated and every 30 min a grid of 3×3 pictures was imaged. The imaging continued for another 6 days and the images were concatenated using Zen imaging software. […] After 6 days cell viability was determined as in FIG. 2C). […] Experiment as in FIG. 2C, but according to the indicated treatment plan. Instead of one single dose, three doses were given (one day in between) of ⅓ that concentration each time. […] Left: Experiment as in FIG. 2C, but on cells pretreated once daily for two days with IL-1α Receptor Antagonist (RA), which blocks IL-1α/β signaling, recombinant IL-6 and recombinant IL-1α/β. […] Right: Similar experiment as in the left panel, except viability measured one day earlier. […] In senescent cells p53 signaling causes upregulation of the cell-cycle arrest and pro-survival protein p21Cip1. […] Experiment as in FIG. 2K. […] Experiment as in FIG. 2c, but with control and senescent IMR90 stable transduced with shRNAs against p53 or a control shRNA (shGFP).
A) Control IMR90 and IMR90 induced to senesce through 10Gy IR were plated in triplicate for each condition in a 96-well plate. […] After 6 days viability was determined through AqeousOne celltiter assay (Promega) according to the manufacturer's instructions.
Non-senescent (=“normal”, proliferating) IMR90 cells (ATCC #CCL-186, a diploid primary human fibroblast adherent cell line derived from fetal lung tissue) were irradiated with 10Gy Gamma-IR (IR=irradiation). After 7 days these cells are senescent and can be used for experiments comparing them to their non-irradiated (=non-senescent) counterparts. Senescent and non-senescent IMR90 fibroblasts were plated for longitudinal cell density measurement using the xCELLigence system (ACEA Biosciences, Inc., San Diego, Calif.).
(§1) 5000 senescent (obtained as described above) and 2000 non-senescent IMR90 fibroblasts were plated in 96-well plates incubated with concentrations of NQDI between 0-20 μM and after 6 days cell viability was determined by AqueousOne CellTiter (MTT) assay according to the manufacturer's instructions.
as §1, with “R406, ranging from 16, 32, 64 to 128 nM” for “NQDI between 0-20 μM”
Normal human IMR90 fibroblasts were exposed to 10 Gy Ionizing Radiation or treated 3× (bidaily) with 0.5 μM Doxorubicin. Seven days later they were processed for SA-β-Gal staining to visualize senescent cells. […] DAPI was used as a counterstain to visualize nuclei. […] After 6 days the cell viability was determined using an AqueousOne Celltiter (MTT) assay according to the manufacturer's instructions.

[4] = system: fast aging Xpd^TTD/TTD mice; assay: Healthspan, organ function and blood parameters of fast aging Xpd^TTD/TTD and wildtype mice; type: in vivo, mouse; conditions: 5 mg/kg i.v. day 0, 2 and 4, end of experiment

**Q.** For CC(C)(C)c1nc(-c2cccc(NS(=O)(=O)c3c(F)cccc3F)c2F)c(-c2ccnc(N)n2)s1 [Dabrafenib], which “LOX-IMVI viability, agent on its own” value ([1]; single agent) is on record?
**A.** do not markedly affect LOX-IMVI viability

**Q.** For OO [H2O2], which “LOX-IMVI viability, individually” value ([1]; FOXO4 DRI or H2O2 alone) is on record?
**A.** only marginally influenced LOX-IMVI viability

**Q.** How did the “cell density, sequential rounds” value [2] turn out when CCOC(=O)c1c2c3c(cccc3[nH]c1=O)C(=O)c1ccccc1-2 [NQDI, 2,7-Dihydro-2,7-dioxo-3H-naphtho[1,2,3-de]quinoline-1-carboxylic acid ethyl ester] was run?
**A.** enhance its effectivity towards senescent cell clearance

**Q.** And the “% viability over Mock, senescent and non-senescent IMR90” value ([3]; 0-20 μM, 6 days)?
**A.** clearly reduces cell viability in senescent, but not non-senescent IMR90 fibroblasts

**Q.** What about the “effect on non-senescent cells at high dose” value ([3]; 20 uM) of the same compound?
**A.** not affected

**Q.** “[dL][dT][dL][dR][dK][dE][dP][dA][dS][dE][dI][dA][dQ][dS][dI][dL][dE][dA][dY][dS][dQ][dN]G[dW][dA][dN][dR][dR][dS]GG[dK][dR][dP][dP][dP][dR][dR][dR][dQ][dR][dR][dK][dK][dR]G [FOXO4 DRI]” was tested. Which “toxicity to non-senescent cells” value [3] did it give?
**A.** proved to be safe to non-senescent cells

**Q.** And the “toxicity to the hematopoietic system (blood parameters)” value [4]?
**A.** does not induce toxicity to the hematopoietic system
